In patent US20230203059A1, “MACROCYCLIC JAK INHIBITOR AND USES THEREOF” (Biopolar Hongye (Guangdong) Pharmaceutical Co. Ltd., priority 2020, published 2023):

Tests used:
Assay type in all cases: biochemical
[1] = target: JAK2 (Homo sapiens, UniProt O60674); assay: JAK kinase activity, homogeneous time-resolved fluorescence (JAK2 reaction system); details: ATP 2 μM, JAK2 protein 0.01 ng/μL
Procedure, shortened: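 IC50 derived by Hill-equation fit of the 665/615 nm time-resolved fluorescence ratio after EDTA-containing detection mix with anti-phosphosubstrate antibody. Preceding 1 h reaction contained 2 μM ATP, 0.01 ng/μL JAK2, substrate, 50 mM Hepes pH 7.0, 5 mM MgCl2, 1 mM DTT.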

[2] = target: JAK1 (Homo sapiens, UniProt P23458); assay: JAK kinase activity, homogeneous time-resolved fluorescence (JAK1 reaction system); details: ATP 2 μM, JAK1 protein 0.2 ng/μL; read-out: JAK 1 activity
Procedure, shortened: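 Kinase activity read as the 665 nm/615 nm time-resolved fluorescence ratio (320 nm excitation) after EDTA-containing antibody and XL-615 addition. Reaction ran 1 h at pH 7.0 (Hepes, MgCl2, DTT) with 0.2 ng/μL JAK1 and ATP at 2 μM. IC50 derived by Hill-slope fit.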

[3] = target: T1, JAK3 (Homo sapiens, UniProt P52333); assay: JAK kinase activity, homogeneous time-resolved fluorescence (JAK3 reaction system); details: ATP 2 μM, JAK3 protein 0.04 ng/μL; read-out: JAK 3 activity
T1 sequence (P52333 1-1124): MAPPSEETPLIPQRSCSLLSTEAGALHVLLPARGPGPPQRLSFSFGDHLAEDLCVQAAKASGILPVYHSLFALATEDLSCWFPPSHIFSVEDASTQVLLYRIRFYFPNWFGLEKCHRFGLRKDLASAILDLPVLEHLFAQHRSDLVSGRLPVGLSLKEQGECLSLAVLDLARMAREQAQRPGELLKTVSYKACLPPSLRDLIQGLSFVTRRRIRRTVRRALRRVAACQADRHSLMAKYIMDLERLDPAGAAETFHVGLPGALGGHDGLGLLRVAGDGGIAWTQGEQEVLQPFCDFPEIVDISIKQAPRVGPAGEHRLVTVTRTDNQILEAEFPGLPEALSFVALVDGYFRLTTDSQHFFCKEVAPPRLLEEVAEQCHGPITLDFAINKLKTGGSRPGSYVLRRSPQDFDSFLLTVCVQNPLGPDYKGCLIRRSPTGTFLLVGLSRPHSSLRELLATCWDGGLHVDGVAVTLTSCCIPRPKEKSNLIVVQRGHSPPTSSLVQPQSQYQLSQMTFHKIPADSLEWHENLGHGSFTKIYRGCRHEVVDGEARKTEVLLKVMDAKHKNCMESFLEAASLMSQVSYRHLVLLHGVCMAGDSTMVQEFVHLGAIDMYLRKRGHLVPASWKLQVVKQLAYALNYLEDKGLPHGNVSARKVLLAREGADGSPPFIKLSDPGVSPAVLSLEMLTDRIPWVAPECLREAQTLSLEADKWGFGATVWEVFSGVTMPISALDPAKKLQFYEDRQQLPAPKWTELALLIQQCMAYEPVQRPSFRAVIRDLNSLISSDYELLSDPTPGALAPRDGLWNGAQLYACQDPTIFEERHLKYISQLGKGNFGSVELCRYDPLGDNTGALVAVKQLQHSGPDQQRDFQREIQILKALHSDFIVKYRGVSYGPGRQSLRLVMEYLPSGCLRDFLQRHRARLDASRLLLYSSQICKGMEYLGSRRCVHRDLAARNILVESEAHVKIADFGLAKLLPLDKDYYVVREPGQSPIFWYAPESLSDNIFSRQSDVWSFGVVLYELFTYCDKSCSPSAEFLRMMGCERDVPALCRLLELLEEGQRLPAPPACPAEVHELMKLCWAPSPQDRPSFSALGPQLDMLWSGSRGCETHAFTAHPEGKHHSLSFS

[4] = target: TYK2 (Homo sapiens, UniProt P29597); assay: JAK kinase activity, homogeneous time-resolved fluorescence (TYK2 reaction system); details: ATP 2 μM, TYK2 protein 0.2 ng/μL; read-out: TYK 2 activity
Procedure, shortened: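 Activity read as the 665 nm/615 nm ratio after adding EDTA-containing detection mix with anti-phospho-substrate antibody and XL-615. Beforehand, 0.2 ng/μL TYK2, 2 μM ATP, substrate and compound reacted 1 h in pH 7.0 Hepes buffer with MgCl2 and DTT. IC50 fitted with Hill-slope equation.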

Sequence of TYK2 (P29597 whole entry): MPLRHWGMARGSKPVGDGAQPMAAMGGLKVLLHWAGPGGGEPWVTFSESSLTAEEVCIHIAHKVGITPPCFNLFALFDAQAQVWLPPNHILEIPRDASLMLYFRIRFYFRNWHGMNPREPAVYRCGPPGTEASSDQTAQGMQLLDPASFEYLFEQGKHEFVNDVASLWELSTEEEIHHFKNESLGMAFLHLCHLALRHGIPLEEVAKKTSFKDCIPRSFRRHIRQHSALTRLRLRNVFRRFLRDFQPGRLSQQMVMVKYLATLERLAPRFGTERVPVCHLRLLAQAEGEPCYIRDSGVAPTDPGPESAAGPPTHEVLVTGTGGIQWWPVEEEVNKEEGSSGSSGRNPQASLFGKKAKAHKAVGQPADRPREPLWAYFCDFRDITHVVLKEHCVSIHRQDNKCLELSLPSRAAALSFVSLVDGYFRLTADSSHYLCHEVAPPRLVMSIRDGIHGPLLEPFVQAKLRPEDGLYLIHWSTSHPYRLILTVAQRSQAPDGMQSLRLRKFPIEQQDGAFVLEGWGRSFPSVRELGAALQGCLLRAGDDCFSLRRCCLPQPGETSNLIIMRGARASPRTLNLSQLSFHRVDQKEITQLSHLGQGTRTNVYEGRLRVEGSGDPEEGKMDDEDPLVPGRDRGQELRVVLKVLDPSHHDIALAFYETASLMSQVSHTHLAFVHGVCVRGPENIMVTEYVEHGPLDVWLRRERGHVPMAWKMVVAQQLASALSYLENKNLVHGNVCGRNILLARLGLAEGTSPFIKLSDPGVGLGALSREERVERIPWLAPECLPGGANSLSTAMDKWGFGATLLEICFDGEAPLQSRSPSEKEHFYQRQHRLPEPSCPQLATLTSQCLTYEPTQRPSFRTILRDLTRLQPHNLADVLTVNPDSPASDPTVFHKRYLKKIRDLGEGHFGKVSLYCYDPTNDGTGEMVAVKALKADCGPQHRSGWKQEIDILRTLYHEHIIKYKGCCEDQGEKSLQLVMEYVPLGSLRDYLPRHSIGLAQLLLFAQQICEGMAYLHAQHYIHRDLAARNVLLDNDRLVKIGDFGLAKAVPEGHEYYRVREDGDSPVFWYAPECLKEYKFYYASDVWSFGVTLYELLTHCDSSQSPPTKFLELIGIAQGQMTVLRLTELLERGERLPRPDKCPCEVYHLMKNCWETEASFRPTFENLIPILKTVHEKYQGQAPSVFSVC
Sequence of JAK2 (O60674 whole entry): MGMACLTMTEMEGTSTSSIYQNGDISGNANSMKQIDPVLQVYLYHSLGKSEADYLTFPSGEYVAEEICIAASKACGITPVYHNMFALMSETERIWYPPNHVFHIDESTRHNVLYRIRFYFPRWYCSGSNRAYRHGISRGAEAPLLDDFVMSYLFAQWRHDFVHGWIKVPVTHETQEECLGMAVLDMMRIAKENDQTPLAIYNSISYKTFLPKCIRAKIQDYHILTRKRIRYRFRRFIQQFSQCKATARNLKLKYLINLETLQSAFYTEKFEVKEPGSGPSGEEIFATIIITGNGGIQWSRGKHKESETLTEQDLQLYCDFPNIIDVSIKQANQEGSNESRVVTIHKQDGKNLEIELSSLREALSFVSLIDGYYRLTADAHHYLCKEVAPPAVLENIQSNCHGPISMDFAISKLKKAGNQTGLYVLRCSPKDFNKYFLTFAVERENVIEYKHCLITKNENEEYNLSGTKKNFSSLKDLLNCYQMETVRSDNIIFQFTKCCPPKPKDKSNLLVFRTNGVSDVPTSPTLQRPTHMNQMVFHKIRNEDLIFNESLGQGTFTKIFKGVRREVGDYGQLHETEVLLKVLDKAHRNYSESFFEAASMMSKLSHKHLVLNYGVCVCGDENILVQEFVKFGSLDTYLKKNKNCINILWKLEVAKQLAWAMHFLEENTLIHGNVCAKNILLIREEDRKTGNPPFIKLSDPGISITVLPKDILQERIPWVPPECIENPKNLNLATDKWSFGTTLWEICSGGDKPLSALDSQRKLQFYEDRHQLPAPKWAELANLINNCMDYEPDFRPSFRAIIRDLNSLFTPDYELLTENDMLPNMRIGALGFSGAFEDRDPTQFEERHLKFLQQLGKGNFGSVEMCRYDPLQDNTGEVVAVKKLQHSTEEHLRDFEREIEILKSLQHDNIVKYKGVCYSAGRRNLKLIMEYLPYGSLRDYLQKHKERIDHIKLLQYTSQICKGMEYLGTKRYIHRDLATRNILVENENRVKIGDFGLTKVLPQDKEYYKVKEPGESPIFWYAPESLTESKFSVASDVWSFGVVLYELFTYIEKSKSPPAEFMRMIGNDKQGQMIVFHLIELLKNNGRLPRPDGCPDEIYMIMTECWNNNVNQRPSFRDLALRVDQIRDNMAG
Sequence of JAK1 (P23458 whole entry): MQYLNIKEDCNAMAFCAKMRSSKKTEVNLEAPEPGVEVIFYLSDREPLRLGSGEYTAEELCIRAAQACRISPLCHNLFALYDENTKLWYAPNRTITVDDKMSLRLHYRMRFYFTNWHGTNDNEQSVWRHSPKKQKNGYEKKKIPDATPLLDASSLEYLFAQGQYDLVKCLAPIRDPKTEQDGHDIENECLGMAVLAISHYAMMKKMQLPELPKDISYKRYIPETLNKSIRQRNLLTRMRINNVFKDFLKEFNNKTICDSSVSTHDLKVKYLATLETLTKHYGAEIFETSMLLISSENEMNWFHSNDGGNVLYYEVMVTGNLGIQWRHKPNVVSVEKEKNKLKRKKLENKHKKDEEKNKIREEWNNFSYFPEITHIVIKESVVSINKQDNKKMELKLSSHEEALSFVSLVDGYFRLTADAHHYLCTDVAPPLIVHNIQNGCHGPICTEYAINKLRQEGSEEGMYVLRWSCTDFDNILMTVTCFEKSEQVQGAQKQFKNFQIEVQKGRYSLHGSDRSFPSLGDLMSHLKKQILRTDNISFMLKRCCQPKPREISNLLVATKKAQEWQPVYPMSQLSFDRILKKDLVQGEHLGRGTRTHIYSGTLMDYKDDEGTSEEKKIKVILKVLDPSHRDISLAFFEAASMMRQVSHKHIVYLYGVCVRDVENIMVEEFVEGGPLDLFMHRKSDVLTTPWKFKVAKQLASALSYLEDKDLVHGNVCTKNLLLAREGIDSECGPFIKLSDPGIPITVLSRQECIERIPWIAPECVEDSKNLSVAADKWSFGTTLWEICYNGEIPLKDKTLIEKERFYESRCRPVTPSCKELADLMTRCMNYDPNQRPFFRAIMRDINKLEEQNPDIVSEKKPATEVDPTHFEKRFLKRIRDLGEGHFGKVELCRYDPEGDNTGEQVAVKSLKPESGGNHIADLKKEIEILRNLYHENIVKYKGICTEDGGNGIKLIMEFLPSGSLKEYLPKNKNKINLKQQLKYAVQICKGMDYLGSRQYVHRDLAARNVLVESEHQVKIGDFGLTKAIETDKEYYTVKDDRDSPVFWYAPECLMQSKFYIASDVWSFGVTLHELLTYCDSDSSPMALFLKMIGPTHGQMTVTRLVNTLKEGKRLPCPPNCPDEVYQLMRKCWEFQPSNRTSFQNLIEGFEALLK

| Compound | IC50 [1] | IC50 [2] | IC50 [3] | IC50 [4] |
| --- | --- | --- | --- | --- |
| Nc1cc2ccc1-c1ccnc(n1)Nc1ccc(OCc3cccc4c3CCO4)c(c1)COCCCCNC2=O [Example 151, 1^2-amino-4^4-((2,3-dihydrobenzofu-ran-4-yl)methoxy)-6-oxa-3,11-dia-za-2(4,2)-pyrimidina-1(14),4(1,3)-dibenzenacyclododecaphan-12-one] | 0.101 to 1 µM | 1 to 10 µM | 0.011 to 0.1 µM | 1 to 10 µM |
| CN1CCN(c2ccc3cc2COCCCCNC(=O)c2ccc(cc2)-c2ccnc(n2)N3)CC1 [Example 7, 4^4-(4-methylpiperazin-1-)-6-oxa-3,11-diaza-2(4,2)-pyrimidina-1(1,4),4(1,3)-dibenzenacyclododecaphan-12-one] | 0.011 to 0.1 µM | 0.101 to 1 µM | 0.011 to 0.1 µM | 0.101 to 1 µM |
| CC(C)COc1ccc2cc1COc1ccc(cc1)NC(=O)c1ccc(c(N)c1)-c1ccnc(n1)N2 [Example 202, 1^2-amino-4^4-isobutoxy-6-oxa-3,8-di-aza-2(4,2)-pyrimidina-1,7(1,4),4(1,3)-tribenzenacyclononaphane-9-one] | 1 to 10 µM | 1 to 10 µM | 0.011 to 0.1 µM | > 10 µM |
| O=C1NCCCOCc2cc(ccc2N2CCOCC2)Nc2nccc(n2)-c2ccc1cc2 [Example 13, 4^4-morpholin-6-oxa-3,11-diaza-2(4,2)-pyrimidina-1(1,4),4(1,3)-dibenzena-cycloundecaphan-11-one] | > 10 µM | > 10 µM | > 10 µM | > 10 µM |
| COc1cc(Cl)cc(F)c1COc1ccc2cc1COCCCCNC(=O)c1ccc(c(N)c1)-c1ccnc(n1)N2 [Example 193, 1^2-amino-4^4-((4-chloro-2-fluoro-6-methoxybenzyl)oxy)-6-oxa-3,11-diaza-2(4,2)-pyrimidina-1(1,4),4(1,3)-dibenzenacyclododecaphan-12-one] | 1 to 10 µM | 1 to 10 µM | 0.011 to 0.1 µM | 1 to 10 µM |
| COc1cccc(F)c1COc1ccc2cc1COCCCCNC(=O)c1ccc(c(N)c1)-c1ccnc(n1)N2 [Example 172, 1^2-amino-4^4-((2-fluoro-6-methoxy-benzyl)oxy)-6-oxa-3,11-diaza-2(4,2)-pyrimidina-1(1,4),4(1,3)-di-benzenacyclododecaphan-12-one] | 0.101 to 1 µM | 1 to 10 µM | 0.011 to 0.1 µM | 1 to 10 µM |
| Nc1cc2ccc1-c1ccnc(n1)Nc1ccc(OCC3COC3)c(c1)COCCCCNC2=O [Example 164, 1^2-amino-4^4-(oxetan-3-ylmethoxy)-6-oxa-3-diaza-2(4,2)-pyrimidina-1(1,4),4(1,3)-dibenzenacyclo-dodecaphan-12-one] | 0.101 to 1 µM | 1 to 10 µM | 0.011 to 0.1 µM | 1 to 10 µM |
| CC1CCNC(=O)c2ccc(c([N+](=O)[O-])c2)-c2ccnc(n2)Nc2ccc(OCC3CC3)c(c2)COC1 (stereo not shown) [Example 144, 4^4-(cyclopropylmethoxy)-8-methyl-1^2-nitro-6-oxa-3,11-diaza-2(4,2)-pyrimidina-1(1,4),4(1,3)-dibenzena-cyclododecaphan-12-one] | > 10 µM | > 10 µM | 1 to 10 µM | > 10 µM |
| Nc1cc2ccc1-c1ccnc(n1)Nc1ccc(OC3CC(F)(F)C3)c(c1)COCCCCNC2=O [Example 98, 1^2-amino-4^4-(3,3-difluorocyclobuto-xy)-6-oxa-3,11-diaza-2(4,2)-pyri-midina-1(1,4),4(1,3)-dibenzenacyclo-dodecaphan-12-one] | 0.101 to 1 µM | 0.101 to 1 µM | 0.011 to 0.1 µM | 1 to 10 µM |
| Nc1cc2ccc1-c1ccnc(n1)Nc1ccc(Oc3ccc(F)cc3)c(c1)COCCCCNC2=O [Example 107, 1^2-amino-4^4-(4-fluorophenoxy)-6-oxa-3,11-diaza-2(4,2)-pyrimidina-1(1,4),4(1,3)-dibenzenacyclo-dodecaphan-12-one] | 0.101 to 1 µM | 1 to 10 µM | 0.011 to 0.1 µM | > 10 µM |
